# Measured values taken from patent publication US9974785B2, “Aromatic heterocyclic derivatives and pharmaceutical applications thereof” (SUNSHINE LAKE PHARMA CO., LTD., priority 2014, dated 2018).
# Target: human 5-HT6 receptor (Homo sapiens (Human), UniProt P50406)
# Experiment: Radioligand binding assay, human 5-HT6 receptor expressed in CHO cell
# Details: 2 nM [3H]LSD
# Experimental: Example A: The Binding Affinities of the Compounds of this Invention to Human 5-HT6 Receptor Expressed in CHO Cell were Evaluated by Radioligand Binding Assay as Follows
# 32 μg membrane proteins of CHO cell expressing human 5-HT6 receptor, 2 nM of radioactive marker [3H]LSD, a compound of the present invention having different test concentrations, 100 μM 5-HT (5-HT was used to eliminate nonspecific binding sites) and a buffer solution were mixed uniformly. Then the resulting mixture was incubated at 37° C. for 120 min, in which the buffer solution comprised 50 mM Tris-HCl (pH 7.4), 10 mM MgCl2, 0.5 mM EDTA, 10 μM pargyline and 20 mg/L protease inhibitor.
# After incubation, the resulting mixture was filtered by a fiberglass filter (GF/B, Packard) in vacuo, and the filter membrane of the fiberglass filter was preimpregnated with 0.3% PEI before the filtering and washed with 50 mM of Tris-HCl for several times after the filtering. After the filter membrane was dried, and the radioactivity of filter membrane was determined by liquid scintillation counting by using a scintillometer (Topcount, Packard). The reference standard was 5-HT, and competitive inhibition curves were plotted based on several inhibition ratios and the corresponding compound concentrations. IC50 values were calculated by non-linear regression analysis using Hill equation curves, and the Ki values were calculated from IC50 by using the ChengPrusoff equation.
# Chain of human 5-HT6 receptor (P50406 whole entry): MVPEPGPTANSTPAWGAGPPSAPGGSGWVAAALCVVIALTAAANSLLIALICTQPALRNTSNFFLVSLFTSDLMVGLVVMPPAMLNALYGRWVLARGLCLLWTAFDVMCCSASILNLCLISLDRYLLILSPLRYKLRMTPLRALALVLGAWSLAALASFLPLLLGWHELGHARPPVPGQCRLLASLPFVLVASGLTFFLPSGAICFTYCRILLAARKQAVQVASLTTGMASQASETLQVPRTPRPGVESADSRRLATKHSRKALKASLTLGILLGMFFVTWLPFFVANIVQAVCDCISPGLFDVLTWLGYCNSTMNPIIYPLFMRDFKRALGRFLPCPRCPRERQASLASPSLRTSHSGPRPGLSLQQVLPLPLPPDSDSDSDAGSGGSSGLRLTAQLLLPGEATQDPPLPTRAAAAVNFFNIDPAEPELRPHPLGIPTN
row,SMILES,Ki
1,"O=S(=O)(c1cccc(Cl)c1)n1cc(C(F)F)c2c(N3CCNCC3)cc(Br)cc21 [Example 36, 6-bromo-1-((3-chlorophenyl)sulfonyl)-3-(difluoromethyl)-4-(piperazin-1-yl)-1H-indole]",1.7 nM
2,"CCN1CCN(c2cccc3c2c(C(F)F)cn3S(=O)(=O)c2cccc(F)c2)CC1 [Example 43, 3-(difluoromethyl)-4-(4-ethylpiperazin-1-yl)-1-((3-fluorophenyl)sulfonyl)-1H-indole]",2.3 nM
3,"O=S(=O)(c1cccc(F)c1)n1cc(C(F)F)c2c(NC3CCNCC3)cccc21 [Example 52, 3-(difluoromethyl)-1-((3-fluorophenyl)sulfonyl)-N-(piperidin-4-yl)-1H-indol-4-amine]",18 nM
4,"CN1CCN(c2cccc3c2c(C(F)F)cn3S(=O)(=O)c2cccc(F)c2)CC1 [Example 42, 3-(difluoromethyl)-1-((3-fluorophenyl)sulfonyl)-4-(4-methylpiperazin-1-yl)-1H-indole]",0.7 nM
5,"O=S(=O)(c1ccccc1)n1cc(C(F)F)c2c(N3CCNCC3)cccc21 [Example 1, 3-(difluoromethyl)-1-(phenylsulfonyl)-4-(piperazin-1-yl)-1H-indole]",1.6 nM
6,"O=S(=O)(c1ccccc1F)n1cc(C(F)F)c2cc(N3CCNCC3)ccc21 [Example 12, 3-(difluoromethyl)-1-((2-fluorophenyl)sulfonyl)-5-(piperazin-1-yl)-1H-indole]",30 nM
7,"O=S(=O)(c1cccc(F)c1)n1cc(C(F)F)c2c(N3CCNCC3)cc(Cl)cc21 [Example 27, 6-chloro-3-(difluoromethyl)-1-((3-fluorophenyl)sulfonyl)-4-(piperazin-1-yl)-1H-indole]",1.9 nM
8,"O=S(=O)(c1cccc(Br)c1)n1cc(C(F)F)c2c(N3CCNCC3)cc(Cl)cc21 [Example 29, 1-((3-bromophenyl)sulfonyl)-6-chloro-3-(difluoromethyl)-4-(piperazin-1-yl)-1H-indole]",1.3 nM
9,"O=S(=O)(c1ccc(Cl)cc1)n1cc(C(F)F)c2cc(N3CCNCC3)ccc21 [Example 20, 1-((4-chlorophenyl)sulfonyl)-3-(difluoromethyl)-5-(piperazin-1-yl)-1H-indole]",44 nM
10,"O=S(=O)(c1ccccc1)n1cc(C(F)F)c2cc(N3CCNCC3)ccc21 [Example 11, 3-(difluoromethyl)-1-(phenylsulfonyl)-5-(piperazin-1-yl)-1H-indole]",11 nM
11,"O=S(=O)(c1cccc(Br)c1)n1cc(C(F)F)c2cc(N3CCNCC3)ccc21 [Example 19, 1-((3-bromophenyl)sulfonyl)-3-(difluoromethyl)-5-(piperazin-1-yl)-1H-indole]",13 nM
12,"COc1ccc(S(=O)(=O)n2cc(C(F)F)c3cc(N4CCNCC4)ccc32)cc1 [Example 16, 3-(difluoromethyl)-1-((4-methoxyphenyl)sulfonyl)-5-(piperazin-1-yl)-1H-indole]",67 nM
13,"O=S(=O)(c1cccc(Cl)c1)n1cc(C(F)F)c2cc(N3CCNCC3)ccc21 [Example 18, 1-((3-chlorophenyl)sulfonyl)-3-(difluoromethyl)-5-(piperazin-1-yl)-1H-indole]",15 nM
14,"O=S(=O)(c1ccccc1Br)n1cc(C(F)F)c2c(N3CCNCC3)cc(Cl)cc21 [Example 26, 1-((2-bromophenyl)sulfonyl)-6-chloro-3-(difluoromethyl)-4-(piperazin-1-yl)-1H-indole]",1.1 nM
15,"COc1ccc(S(=O)(=O)n2cc(C(F)F)c3c(N4CCNCC4)cccc32)cc1 [Example 8, 3-(difluoromethyl)-1-((4-methoxyphenyl)sulfonyl)-4-(piperazin-1-yl)-1H-indole]",12 nM
16,"O=S(=O)(c1ccc(Br)cc1)n1cc(C(F)F)c2cc(N3CCNCC3)ccc21 [Example 21, 1-((4-bromophenyl)sulfonyl)-3-(difluoromethyl)-5-(piperazin-1-yl)-1H-indole]",44 nM
17,"CC(C)N1CCN(c2cccc3c2c(C(F)F)cn3S(=O)(=O)c2cccc(F)c2)CC1 [Example 44, 3-(difluoromethyl)-1-((3-fluorophenyl)sulfonyl)-4-(4-isopropylpiperazin-1-yl)-1H-indole]",27 nM
18,"O=S(=O)(c1cccc(Br)c1)n1cc(C(F)F)c2c(NC3CCNCC3)cccc21 [Example 54, 1-((3-bromophenyl)sulfonyl)-3-(difluoromethyl)-N-(piperidin-4-yl)-1H-indol 4-amine]",11 nM
19,"O=S(=O)(c1ccccc1Cl)n1cc(C(F)F)c2c(N3CCNCC3)cc(Cl)cc21 [Example 25, 6-chloro-1-((2-chlorophenyl)sulfonyl)-3-(difluoromethyl)-4-(piperazin-1-yl)-1H-indole]",0.68 nM
20,"O=S(=O)(c1ccccc1Cl)n1cc(C(F)F)c2cc(N3CCNCC3)ccc21 [Example 13, 1-((2-chlorophenyl)sulfonyl)-3-(difluoromethyl)-5-(piperazin-1-yl)-1H-indole]",13 nM
21,"O=S(=O)(c1ccccc1C(F)(F)F)n1cc(C(F)F)c2c(N3CCNCC3)cc(Cl)cc21 [Example 23, 6-chloro-3-(difluoromethyl)-4-(piperazin-1-yl)-1-((2-(trifluoromethyl)phenyl)sulfonyl)-1H-indole]",9.3 nM
22,"Cc1ccc(S(=O)(=O)n2cc(C(F)F)c3c(N4CCNCC4)cccc32)cc1 [Example 7, 3-(difluoromethyl)-4-(piperazin-1-yl)-1-tosyl-1H-indole]",6.4 nM
23,"O=S(=O)(c1ccccc1)n1cc(C(F)F)c2c(NC3CCNCC3)cccc21 [Example 55, 3-(difluoromethyl)-1-(phenylsulfonyl)-N-(piperidin-4-yl)-1H-indol-4-amine]",65 nM
24,"O=S(=O)(c1cccc(Br)c1)n1cc(C(F)F)c2c(N3CCNCC3)cc(Br)cc21 [Example 37, 6-bromo-1-((3-bromophenyl)sulfonyl)-3-(difluoromethyl)-4-(piperazin-1-yl)-1H-indole]",1.5 nM
25,"O=S(=O)(c1ccccc1Br)n1cc(C(F)F)c2cc(N3CCNCC3)ccc21 [Example 14, 1-((2-bromophenyl)sulfonyl)-3-(difluoromethyl)-5-(piperazin-1-yl)-1H-indole]",20 nM
26,"Cc1ccc(S(=O)(=O)n2cc(C(F)F)c3cc(N4CCNCC4)ccc32)cc1 [Example 15, 3-(difluoromethyl)-5-(piperazin-1-yl)-1-tosyl-1H-indole]",17 nM
27,"O=S(=O)(c1ccc2ccccc2c1)n1cc(C(F)F)c2c(N3CCNCC3)cccc21 [Example 10, 3-(difluoromethyl)-1-(naphthalen-2-ylsulfonyl)-4-(piperazin-1-yl)-1H-indole]",0.5 nM
28,"O=S(=O)(c1ccccc1F)n1cc(C(F)F)c2c(N3CCNCC3)cc(Cl)cc21 [Example 24, 6-chloro-3-(difluoromethyl)-1-((2-fluorophenyl)sulfonyl)-4-(piperazin-1-yl)-1H-indole]",1.6 nM
29,"O=S(=O)(c1cccc(Cl)c1)n1cc(C(F)F)c2c(N3CCNCC3)cc(Cl)cc21 [Example 28, 6-chloro-1-((3-chlorophenyl)sulfonyl)-3-(difluoromethyl)-4-(piperazin-1-yl)-1H-indole]",1.4 nM
30,"O=S(=O)(c1cccc(F)c1)n1cc(C(F)F)c2cc(N3CCNCC3)ccc21 [Example 17, 3-(difluoromethyl)-1-((3-fluorophenyl)sulfonyl)-5-(piperazin-1-yl)-1H-indole]",13 nM
